Source: publication PMC5556071, “ATR inhibition facilitates targeting of leukemia dependence on convergent nucleotide biosynthetic pathways” (Nature Communications, 2017)
Where “and” joins values, the source holds several entries; their conditions need not be identical. Equal values may be shown once.

System: CEM cells
Assay: Non-targeted LC-MS metabolite profiling: percent [13C6]glucose labeling and relative metabolite levels
Format: cell-based, human
Settings: CEM cells, 12 h following release from G1 arrest, replicates #1-#6
Source text: To further investigate the functions of dCK and ATR at the G1/S transition in CEM cells, a non-targeted liquid chromatography mass spectrometry (LC-MS) assay was used to determine the utilization of labeled [^13C6]glucose and [^13C9,^15N3]deoxycytidine, the main substrates for de novo and salvage nucleotide biosynthesis, respectively. Of the 166 metabolites identified in CEM cells treated with VE-822 and/or dCKi, 105 metabolites found in all four treatment groups contained glucose-derived ^13C atoms. […] These metabolites included intermediates such as rUTP, rCTP and rCDP in the de novo dCTP biosynthesis (Fig. 1d). […] However, several deoxyribonucleotides, including dCTP, were below the limit of detection of the non-targeted LC-MS approach, raising the concern that the sensitivity of this assay is not sufficient to measure the contribution of the salvage pathway or the ratio of de novo and salvage biosynthesis to these pools. To address this problem, a newly developed targeted MS assay was developed (Fig. 1e and Supplementary Fig. 3). In this assay, samples containing either extracted dNTPs or hydrolyzed DNA from labeled cells are separated by LC for detection by a triple quadrupole mass spectrometer using multiple reaction monitoring (LC-MS/MS-MRM). The first (Q1) and third (Q3) quadrupoles function as mass filters, while the second (Q2) quadrupole serves as a collision chamber (Fig. 1e). For instance, to profile the biosynthetic composition of deoxycytidine (dC) derived from hydrolyzed DNA or dCTP, an intact, protonated dC ion is selected in Q1, followed by fragmentation of the glycosidic bond, which releases protonated cytosine in Q2, that is filtered in Q3 and detected to generate an ion chromatogram. The peak areas for the ion chromatograms of salvage [^13C9,^15N3]dC (red trace), de novo [^13C5]dC (black trace, from [^13C6]glucose) and unlabeled dC (gray trace) (Fig. 1e) are used to determine the relative contributions of the de novo and salvage routes both to dCTP pools and to DNA-incorporated dCTP.
Cells were transferred into RPMI-1640 without glucose and supplemented with 10% dialyzed FBS (Gibco) containing the following labeled substrates: precursors for de novo [U-^13C6]glucose (Sigma-Aldrich, 389374) at 11 mM; precursors for purine salvage [U-^13C10,^15N5]dA (Cambridge Isotopes, CIL 3896), [^15N5]dA (Cambridge Isotopes, NLM-3895) and [^15N5]dG (Cambridge Isotopes, NLM-3899) at 5 µM or as indicated; and precursors for pyrimidine salvage: [U-^13C9,^15N3]dC (Silantes, 124603602) and [U-^13C10,^15N2]dT (Cambridge Isotopes, CNLM-3902) at 5 µM and [^15N2]orotate (Cambridge Isotopes, NLM-1048) at indicated concentrations. The cells were incubated for 12 h or as indicated before sample collection and processing. […]
Non-targeted LC-MS metabolic assays. 1 x 10^6 cells were washed with ice-cold 150 mM ammonium acetate twice before adding 1 mL of ice-cold 80% methanol with 10 nM norvaline as an internal standard. After vigorous vortexing, samples were centrifuged at maximum speed, the aqueous layer was transferred to a glass vial and the metabolites were dried under vacuum. Metabolites were resuspended in 50 μL 70% acetonitrile (ACN) and 5 μL of this solution used for the mass spectrometer-based analysis. The analysis was performed on a Q Exactive (Thermo Scientific) in polarity-switching mode with positive voltage 4.0 kV and negative voltage 4.0 kV. The mass spectrometer was coupled to an UltiMate 3000RSLC (Thermo Scientific) UHPLC system. Mobile phase A was 5 mM ammonium acetate (NH4AcO), pH 9.9, B was acetonitrile and the separation achieved on a Luna […] NH2 100 A column (150 × 2.0 mm, Phenomenex). The flow was 200 μL/min, and the gradient ran from 15% A to 95% A in 18 min, followed by an isocratic step for 9 min and re-equilibration for 7 min. Metabolites were detected and quantified as area under the curve based on retention time and accurate mass (≤ 3 p.p.m.) using the TraceFinder 3.1 (Thermo Scientific). Relative amounts of […]

[1] = metabolite CDP (KEGG C00112), listed as V
[2] = metabolite CDP-EtA (KEGG C00570), listed as V
[3] = metabolite CMP (KEGG C00055), listed as V
[4] = metabolite CTP (KEGG C00063), listed as V
[5] = metabolite Choline (KEGG C00114), listed as V
[6] = metabolite Cinnamic acid (KEGG C00423), listed as V
[7] = metabolite Cit (KEGG C00158), listed as V
[8] = metabolite Citraconic acid (KEGG C02226), listed as V
[9] = metabolite Creatine (KEGG C00300), listed as V
[10] = metabolite Creatinine (KEGG C00791), listed as V
[11] = metabolite Cytosine (KEGG C00380), listed as V
[12] = metabolite DMG (KEGG C01026), listed as V
[13] = metabolite Dihydroorotate (KEGG C00337), listed as V
[14] = metabolite F16BP (KEGG C00354), listed as V
[15] = metabolite Folate (KEGG C00504), listed as V
[16] = metabolite Fru (KEGG C00095), listed as V
[17] = metabolite Fum (KEGG C00122), listed as V
[18] = metabolite G (KEGG C00387), listed as V
[19] = metabolite dG (KEGG C00330), listed as V
[20] = metabolite dTMP (KEGG C00364), listed as V

CNCc1ccc(-c2cc(-c3nc(-c4ccc(S(=O)(=O)C(C)C)cc4)cnc3N)on2)cc1 [VE-822]
Glucose labeling of CDP [1]: 46.58% and 27.42% and 42.30% and 38.55% and 26.25% and 39.84% | Relative level of CDP [1]: 3.4 and 1.2 and 1.9 and 1.6 and 0.8 and 0.754 | Glucose labeling of CDP-EtA [2]: 25.10% and 38.04% and 37.00% and 40.76% and 32.59% and 33.65% | Relative level of CDP-EtA [2]: 0.7 (3×) and 0.9 and 0.744 and 0.633 | Glucose labeling of CMP [3]: 38.36% and 31.49% and 41.31% and 20.57% and 40.83% and 49.90% | Relative level of CMP [3]: 3.0 and 2.7 and 2.4 and 1.7 and 0.9 and 0.7 | Glucose labeling of CTP [4]: 40.85% and 37.06% and 39.44% and 47.60% and 38.66% and 34.33% | Relative level of CTP [4]: 1.6 and 0.5 and 0.8 and 0.848 and 0.468 and 0.448 | Glucose labeling of Choline [5]: 0.00248% (3×) and 0.00264% and 0.0024% and 0.00242% | Relative level of Choline [5]: 1.2 and 1.3 and 1.4 and 0.849 and 0.8 (2×) | Glucose labeling of Cinnamic acid [6]: 0.00% (5×) and 1.11e-14% | Relative level of Cinnamic acid [6]: 1.7 and 1.5 and 1.6 and 1.0 (2×) and 0.9 | Glucose labeling of Cit [7]: 50.64% and 47.53% and 49.55% and 44.89% and 45.53% and 45.28% | Relative level of Cit [7]: 0.9 and 0.6 and 0.7 and 0.47 and 0.449 and 0.454 | Glucose labeling of Citraconic acid [8]: 0.00% (5×) and -2.22e-14% | Relative level of Citraconic acid [8]: 1.1 (3×) and 1.6 and 0.8 and 1.0 | Glucose labeling of Citrulline (metabolite Citrulline (KEGG C00327)): 0.18% | Relative level of Citrulline (metabolite Citrulline (KEGG C00327), listed as V): 0.5 and 1.2 (2×) and 2.5 and 0.3 and 0.335 | Glucose labeling of Creatine [9]: 0.000881% and 0.000842% and 0.000971% and 0.000748% and 0.000833% and 0.000956% | Relative level of Creatine [9]: 1.0 and 1.1 (2×) and 0.8 and 0.9 and 0.852 | Glucose labeling of Creatinine [10]: 0.000588% and 0.000811% and 0.000818% and 0.000809% and 0.000725% and 0.000748% | Relative level of Creatinine [10]: 1.0 (3×) and 1.1 and 1.2 and 0.848 | Glucose labeling of Cystathionine (metabolite Cystathionine (KEGG C02291)): 0.26% | Relative level of Cystathionine (metabolite Cystathionine (KEGG C02291), listed as V): 1.0 and 0.182 and 1.1 and 0.2 and 0.4 and 0.251 | Glucose labeling of Cytosine [11]: 0.00381% and 0.000394% and 0.000743% and 0.000956% and 0.000512% and 0.0321% | Relative level of Cytosine [11]: 1.4 and 1.7 and 3.0 and 5.5 and 1.6 and 0.9 | Glucose labeling of DHAP (metabolite DHAP (KEGG C00111)): 100.00% | Relative level of DHAP (metabolite DHAP (KEGG C00111), listed as V): 5.8 and 0.3 and 1.3 and 1.2 and 0.2 | Glucose labeling of DMG [12]: 0.0737% and 0.02% and 0.04% and 0.06% and 0.0145% and 0.05% | Relative level of DMG [12]: 0.7 and 1.3 and 1.0 (2×) and 0.527 and 0.9 | Glucose labeling of Dihydroorotate [13]: 0.55% and 0.92% and 0.10% and 0.96% and 0.80% and 0.09% | Relative level of Dihydroorotate [13]: 0.9 and 0.7 and 0.8 and 0.754 and 0.5 and 0.468 | Glucose labeling of F16BP [14]: 97.93% and 88.56% and 94.79% and 95.15% and 79.77% and 75.67% | Relative level of F16BP [14]: 9.1 and 1.1 and 2.4 and 2.6 and 0.552 and 0.456 | Glucose labeling of Folate [15]: 0.00% (5×) and 100.00% | Relative level of Folate [15]: 0.546 and 1.0 and 0.5 and 0.4 and 0.9 | Glucose labeling of Fru [16]: 58.79% and 68.43% and 78.80% and 67.26% and 65.64% and 42.97% | Relative level of Fru [16]: 3.7 and 3.5 and 2.9 and 1.6 and 1.8 and 2.4 | Glucose labeling of Fum [17]: 15.89% and 14.12% and 10.85% and 10.48% and 12.71% and 7.86% | Relative level of Fum [17]: 1.3 and 0.8 (2×) and 1.1 and 0.565 and 0.5 | Glucose labeling of G [18]: 0.55% (4×) and 100.00% (2×) | Relative level of G [18]: 1.1 and 0.852 and 0.9 and 1.6 | Glucose labeling of dATP (metabolite dATP (KEGG C00131)): 100.00% | Relative level of dATP (metabolite dATP (KEGG C00131)): 0.6 | Glucose labeling of dCTP (metabolite dCTP (KEGG C00458)): 100.00% | Relative level of dCTP (metabolite dCTP (KEGG C00458)): 0.0 | Glucose labeling of dG [19]: 0.38% and 0.48% and 0.49% and 0.0145% and 0.37% and 0.09% | Relative level of dG [19]: 1.7 (2×) and 1.1 (2×) and 6.1 and 1.0 | Relative level of dGDP (metabolite dGDP (KEGG C00361)): 61.2 | Glucose labeling of dGDP (metabolite dGDP (KEGG C00361), listed as V): 100.00% (5×) and 0.38% | Glucose labeling of dTMP [20]: 0.55% and 100.00% (4×) and 82.28% | Relative level of dTMP [20]: 0.7 and 6.1 and 3.9 and 1.9 and 0.6 and 0.453 | Glucose labeling of dTTP (metabolite dTTP (KEGG C00459)): 100.00% | Relative level of dTTP (metabolite dTTP (KEGG C00459), listed as V): 0.47 and 0.4 | Glucose labeling, Leu/Ile: 0.00% | Glucose labeling, NAD+: 0.00% | Glucose labeling, P-Creatine: 0.0737% | Glucose labeling, P-EtA: 0.0123% | Glucose labeling, PEP: 100.00% | Glucose labeling, Phe: 0.00% | Glucose labeling, Pipecolate: 0.00% | Glucose labeling, Pyr: 100.00% | Glucose labeling, Sarc (C00213): 0.0369% | Glucose labeling, Thr (C00188): 0.00% | Glucose labeling, Trigonelline (C01004): 0.00%
